Experimental data: patent publication US10980755B2, “LRH-1 modulators” (THE REGENTS OF THE UNIVERSITY OF CALIFORNIA, priority 2015, dated 2021)
Entries after “also recorded” stand apart in the source; their conditions may differ.

Columns and labels:
hLRH-1 = target: T1, hLRH-1 (Homo sapiens, UniProt O00482); test: RT-qPCR of hLRH-1 target gene CYP24A1 in HepG2 / HepG2-hLRH-1 cells; format: cell-based
T1 construct: expressed in transfected cells; host or cells: TET-On 3G HepG2 cells; Dox-inducible pTRE 3G vector (Clontech)

TBP = test: RT-qPCR of housekeeping gene TBP in HepG2-hLRH-1 cells; format: cell-based, human; details: high hLRH-1 (+Dox), 16 h, SR1848 10 μM
Protocol: FIG. 9. Effects of select compounds targeting hLRH-1 compared to PME8. Agonists and antagonists were tested in HepG2-hLRH-1 cells expressing high levels (+Dox) of hLRH-1; activating compounds were added for 16 h relative to the DMSO control (black bars) at the following concentrations: RJW100 (10 μM), DLPC (20 μM), PME8 (10 μM) (bolded, this study) as well as the two putative antagonist/repressors, SR1848 (10 μM) and Cpd3 (10 μM); relative levels of the hLRH-1 target, CYP24A1 (left set of bars) and the housekeeping gene, TBP (right set of bars) are shown with all values normalized to GAPDH. Error bars represents SEM and P values=****<0.0001.
Finally, to ask how PME8 and PME9 compare to other published compounds, we directly compared the activity of all compounds with respect to the ability to activate or repress CYP24A1 expression in HepG2-hLRH-1 cells. For this experiment, assays were carried out under high levels of hLRH-1 (+Dox) to maximize our ability to see any repressive effects of compounds and the ligand concentrations used were based on published effective doses. […] Of the two published antagonist/repressors, only SR1848 decreased CYP24A1 levels. […]
For RT-qPCR assay, cells (5×10^5) were plated on 24-well plates in 0.5 mL of media. […] RT-qPCR was performed with SYBR (Biotool) and data analyzed essentially as described. […]

F342W/I416W hLRH-1 = target: T2, F342W/I416W hLRH-1 (Homo sapiens, UniProt O00482, F342W/I416W); test: RT-qPCR of CYP24A1 in HepG2 cells stably expressing the hLRH-1 pocket mutant; format: cell-based; details: 10 μM, 16 h, low levels of hLRH-1; listed as PME8
T2 construct: expressed in transfected cells; host or cells: TET-On 3G HepG2 cells; Dox-inducible pTRE 3G vector (Clontech)
Protocol: Cell lines and Quantitative Real-time Polymerase Chain Reaction (RT-qPCR) Assay. […] Induction of low or high levels of hLRH-1 was achieved by addition of DMSO or 500 ng/ml Dox, respectively.
For RT-qPCR assay, cells (5×10^5) were plated on 24-well plates in 0.5 mL of media. The following day, fresh media was applied with compound or DMSO control. After an overnight treatment or indicated period of time, cells were washed with ice-cold 1×PBS and total RNA was isolated by Trizol (Life Technologies). DNase-treated total RNA was used to generate cDNA using High-Capacity cDNA Reverse Transcription kits (Life Technologies). RT-qPCR was performed with SYBR (Biotool) and data analyzed essentially as described [19].

[1] = target: biotinylated apo hLRH-1 LBD (Homo sapiens, UniProt O00482); test: Surface plasmon resonance binding assay; details: SPR, 25° C., titration from 300 μM, 1:1 binding model; listed as PME8
Sequence of biotinylated apo hLRH-1 LBD (O00482 300-539 limits assumed): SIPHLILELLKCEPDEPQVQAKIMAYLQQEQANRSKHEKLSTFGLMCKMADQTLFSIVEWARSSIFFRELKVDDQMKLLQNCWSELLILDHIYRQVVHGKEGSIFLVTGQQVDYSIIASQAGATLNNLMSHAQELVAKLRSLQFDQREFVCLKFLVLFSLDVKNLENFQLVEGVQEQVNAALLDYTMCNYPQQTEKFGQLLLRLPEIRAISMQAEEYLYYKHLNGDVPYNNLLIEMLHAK
Protocol: Surface Plasmon Resonance Assays. Data were collected on a BiaCore T100 instrument. The biotin CAPture kit (GE Healthcare Life Science) was used as directed for chip preparation and immobilization of protein. In brief, the CAP chip was first conditioned with 3×1 min injec-tions of the provided regeneration solution (6 M Guanidine HCL, 0.25 M NaOH). CAP reagent was then captured on flow cells 1 and 2 to a final density of ˜2500 response units using capture buffer (25 mM HEPES, pH 7.4, 150 mM NaCl). Avi-tagged LRH-1 was then directly injected exclusively on to flow cell 2 achieving a final density of ˜1000 response units (capture buffer). […] A titration series for each fragment was generated as a 0.6× dilution series starting from 300 μM. All samples were made to match the running buffer used in the experiment as closely as possible (capture buffer+3% DMSO, +0.05% Tween-20, 250 μM TCEP). Data was collected at 25° C. with a flow rate of 30 μL/min. Data processing included referencing to both the reference flow cell as well as a buffer injection. Equilibrium binding constants were determined by nonlinear regression analysis utilizing a simple 1:1 binding model. Steady state values used to generate dose-responses curve correspond to the response units achieved 20 seconds after injection.

T1 sequence (O00482 whole entry): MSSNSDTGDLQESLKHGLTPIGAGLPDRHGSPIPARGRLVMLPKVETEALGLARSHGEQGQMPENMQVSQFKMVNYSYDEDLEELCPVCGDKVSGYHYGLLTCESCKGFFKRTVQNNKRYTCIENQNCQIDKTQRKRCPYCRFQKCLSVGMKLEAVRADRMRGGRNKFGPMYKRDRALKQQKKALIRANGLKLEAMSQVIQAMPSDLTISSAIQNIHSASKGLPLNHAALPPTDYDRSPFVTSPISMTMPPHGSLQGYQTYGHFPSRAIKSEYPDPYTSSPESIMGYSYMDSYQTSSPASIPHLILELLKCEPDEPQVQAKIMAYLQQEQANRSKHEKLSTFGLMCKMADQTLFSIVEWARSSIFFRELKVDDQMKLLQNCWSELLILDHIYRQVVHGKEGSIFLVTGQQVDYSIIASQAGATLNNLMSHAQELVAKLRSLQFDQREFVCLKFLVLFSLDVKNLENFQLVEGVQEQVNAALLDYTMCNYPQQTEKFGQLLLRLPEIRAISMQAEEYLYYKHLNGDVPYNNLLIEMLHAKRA
T2 sequence (O00482 whole entry F342W/I416W): as the sequence (O00482 whole entry) above, with F342W, I416W counted along it

CYP24A1 expression, comparison of published compounds (hLRH-1; high hLRH-1 (+Dox), 16 h, RJW100 10 μM, DLPC 20 μM, SR1848 10 μM)	treatment time of maximal activity (CYP24A1 levels) (hLRH-1; HepG2-hLRH-1 cells) [h]	Structure (SMILES)	expression of the housekeeping gene TBP (TBP)	CYP24A1 expression after siRNA-mediated knockdown of hLRH-1 (dependence on hLRH-1) (hLRH-1; 10 μM, siLRH-1 vs siControl, HepG2-hLRH-1 cells, low hLRH-1 (−Dox), listed as PME8)	time and dose dependence of CYP24A1 induction (hLRH-1; HepG2-hLRH-1 cells, 3-24 h at 10 μM, increasing concentrations for 16 h, −Dox or +Dox, listed as PME8)	activity (CYP24A1 transcripts) in cells expressing the pocket mutant versus wild type hLRH-1 (F342W/I416W hLRH-1)	binding to the hLRH-1 LBD [1]
decreased	–	O=c1cc(N2CCN(c3cccc(Cl)c3)CC2)[nH]c(=O)n1C1CCCCC1 [SR1848, reference compound]	substantial repression	–	–	–	–
–	16	CCCNC(=O)c1cc(C(C)(C)C)cc(C(C)(C)C)c1O [Compound 8, 3,5-di-tert-butyl-2-hydroxy-N-propylbenzamide]	–	precipitous drop in CYP24A1 expression; also recorded: Depends on hLRH-1	time-dependent (FIG. 7A) and dose-dependent	decreased; also recorded: depends on an intact hLRH-1 ligand binding pocket	direct binding; also recorded: bind directly
